Results reported in paper PMC7838546, “A Thermostable, Modified Cathelicidin-Derived Peptide With Enhanced Membrane-Active Activity Against Salmonella enterica serovar Typhimurium” (Frontiers in Microbiology, 2021).
Where two headings read alike, the source gives them in different places. Ends that are not written are not given here.

Assays:
[1] = test system: L929 mouse fibroblast cells; experiment: Cytotoxicity assay (MTT); format: cell-based; details: 24 h, up to 125 μg/ml
Procedure: The toxicity of P7 peptide on L929 mouse fibroblast cells was assessed by a dye reduction assay using 3-(4,5 dimethylthiazol-2-yl)-2,5-diphenyltetrazolium bromide (MTT). Briefly, 3 × 10^4 L929 cells in RPMI 1640 [supplemented with 10% (v/v) fetal bovine serum, 0.2% (w/v) sodium bicarbonate, 2 mM L-glutamine, 100 U/ml penicillin and […] streptomycin] were seeded into each well of 96-well plates and then incubated in a humidified atmosphere with 5% CO2 at 37°C for 24 h. After the incubation period, the peptide was added to obtain final concentrations of 0.98–250 μg/ml; plates were incubated at 37°C under 5% CO2 for 24 h. RPMI 1640 medium with and without cells were used as positive and negative controls, respectively. After incubation, a final concentration of 0.5 mg/ml MTT (Sigma-Aldrich, MO, United States) was added and incubated at 37°C under 5% CO2 for 4 h. Then, the supernatants were removed from each well and 150 μl of dimethyl sulfoxide (DMSO) was added and mixed thoroughly to solubilize the formazan crystals. Subsequently, absorbance was measured at 570 nm using a microplate reader. The cell viability (%) was calculated according to the formula:
%Cellviability=ODTreated-ODBlank/ODUntreated-ODBlank×100

[2] = test system: S. enterica serovar Typhimurium ATCC 13311; format: cell-based, Salmonella enterica serovar Typhimurium
Procedure: (§1) A modified version of the National Committee for Clinical Laboratory Standards (NCCLS) broth microdilution method ([Steinberg et al., 1997]) was used to determine the minimum inhibitory concentrations (MICs) of peptide and compared to that of nisin. Fifty microliters of two-fold serial dilutions of each peptide [0.98–250 μg/ml in 0.01% (v/v) acetic acid and 0.2% (w/v) bovine serum albumin (BSA, Sigma-Aldrich, MO, United States)], were incubated with 50 μl of bacterial suspensions (approximately 10^7 CFU/ml) at 37°C for 24 h in a shaking incubator. MICs were taken as the lowest concentration of peptide at which growth was inhibited as observed by visual inspection. Bacterial cultures without peptides and uncultured broth were used as positive and negative controls, respectively. Minimal bactericidal concentrations (MBCs) were determined using a colony count assay ([Clinical Laboratory Standards Institute [CLSI], 2015]). Fifty microliters of samples from each non-turbid well in the MIC determination experiment was plated on Mueller Hinton Agar (MHA) and colonies were observed after overnight incubation at 37°C. MBCs were designated as the least concentration showing no colony growth on the plate. All of experiments were performed in triplicate.
The stability of P7 was tested by determining its antibacterial activity after exposure to different environmental conditions (high salt concentration, different ranges of pH, proteolytic enzymes and high temperatures) as previously described ([Shwaiki et al., 2020]). To test the effect of salts on the antibacterial activity of P7, 10^7 CFU/ml of S. enterica serovar Typhimurium ATCC 13311 was exposed to two-fold serially diluted concentrations (0.98–250 μg/ml) of P7 in the presence of different salts including NaCl (150 mM), KCl (4.5 mM), MgCl2 (1 mM), NH4Cl (6 μM), ZnCl2 (8 μM), FeCl3 (4 μM), and CaCl2 ([…]) ([Xu et al., 2014]). To determine pH stability, the pH of the peptide’s solution was adjusted to 3, 5, 7, 9, and 11 using 1 M NaOH or 1 M acetic acid (CH3COOH). P7 were incubated in the different pH conditions for 1 h, then transferred to inoculated MHB for antibacterial testing ([Chen et al., 2020]), There was no change of the pH following the addition of peptide. To determine the sensitivity of peptide to proteolytic enzymes, the residual activity of P7 was measured after incubation the peptide with 1 mg/ml (final concentration) of proteolytic enzymes (pepsin or trypsin) at 37°C for 1 h and heat denaturation at 80°C for 1 h. To study thermostability, peptides were pre-incubated without bacteria at various temperatures (40, 60, 80, and 100°C) for 1 h and left to cool for 30 min before testing. After these treatments, the antibacterial assays were carried out and MICs determined as described in section “Antibacterial activity assay.”

[3] = test system: human red blood cells (hRBCs); details: highest concentration tested 250 μg/ml, ref Klubthawee et al., 2020; cited from earlier work
Text: Recently, a 12-mer α-helical, cationic AMP (‘P7’) was designed based on the cathelicidin family using a template-modified strategy, and subsequently modified by truncation and amino acid substitution ([Klubthawee et al., 2020]). […] Furthermore, P7 sho ...

[4] = test system: S. enterica serovar 4,5,12:i:- H2-050 (foodborne isolate); experiment: MIC/MBC, broth microdilution and colony count; format: cell-based, Salmonella enterica serovar 4,5,12:i:-; details: H2-050, pork heart, resistant Amp, broth microdilution, 37°C, 24 h
Procedure: (§2) Salmonella enterica serovar Typhimurium ATCC 13311, 24 drug-resistant foodborne and eleven drug-resistant human borne S. enterica serovar Typhimurium and 4,5,12:i:- isolates (Table 1) were used as test microorganisms. They were previously isolated for molecular characterization in 2014 and kindly provided by Dr. Soraya Chaturongakul (Mahidol University, Thailand) ([Huoy et al., 2014]). All bacteria were cultured in Tryptic Soy Broth (TSB) and incubated at 37°C for 18 h. Mueller Hinton Broth (MHB) was then used to wash and rinse the bacteria. The bacterial suspensions were then diluted to obtain concentrations of 10^7 CFU/ml for inoculations.
as §1

[5] = test system: S. enterica serovar Typhimurium H1-015 (clinical isolate); experiment: MIC/MBC, broth microdilution and colony count; format: cell-based, Salmonella enterica serovar Typhimurium; details: H1-015, boot swab, resistant Amp, intermediate Cp, broth microdilution, 37°C, 24 h
Procedure: as §2, §1

[6] = test system: S. enterica serovar Typhimurium H1-006 (clinical isolate); experiment: MIC/MBC, broth microdilution and colony count; format: cell-based, Salmonella enterica serovar Typhimurium; details: H1-006, blood; resistant NA; intermediate S, Cp; broth microdilution, 37°C, 24 h
Procedure: as §2, §1

[7] = peptide pre-incubated at 40°C for 1 h, cooled 30 min

For KIAKRIWKILRR-NH2 [P7], the “Cytotoxicity on L929 cells” value [1] was “no cytotoxicity”, the MIC ([2]; ATCC 13311, 1 h) was 7.81 µg/mL and the MBC ([2]; ATCC 13311, 1 h, pH 3) was 15.63 µg/mL. For the same substance, the MIC ([2]; ATCC 13311, 1 h, pH 3) was 7.81 µg/mL, the MBC ([2]; ATCC 13311, 1 h, pH 5) was 7.81 µg/mL and the MIC ([2]; ATCC 13311, 1 h, pH 5) was 7.81 µg/mL. It also gave an MBC ([2]; ATCC 13311, 1 h, pH 7) of 7.81 µg/mL, an MIC ([2]; ATCC 13311, 1 h, pH 7) of 7.81 µg/mL and an MBC ([2]; ATCC 13311, 1 h, pH 9) of 7.81 µg/mL. For the same substance, the MIC ([2]; ATCC 13311, 1 h, pH 9) was 7.81 µg/mL, the MBC ([2]; ATCC 13311, 1 h, pH 11) was 15.63 µg/mL and the MIC ([2]; ATCC 13311, 1 h, pH 11) was 7.81 µg/mL. It also gave an MIC ([2]; ATCC 13311, 24 h) of 7.81 µg/mL, an MBC ([2]; Control (no salt)) of 3.91 µg/mL and an MIC ([2]; Control (no salt)) of 3.91 µg/mL. It also gave an MIC ([2]; MgCl2 (1 mM)) of 31.25 µg/mL, an MIC ([2]; NaCl (150 mM)) of 31.25 µg/mL and an MIC ([2]; after pepsin 1 mg/ml, 37°C, 1 h, then heat denaturation 80°C) of 31.25 µg/mL. It also gave an MIC ([2]; after trypsin 1 mg/ml, 37°C, 1 h, then heat denaturation 80°C) of 31.25 µg/mL, an MBC [2, 7] of 3.91 µg/mL and an MIC [2, 7] of 3.91 µg/mL. For the same substance, the MIC ([2]; peptide pre-incubated at 60°C for 1 h, cooled 30 min) was 3.91 µg/mL and the Hemolysis [3] was “less than 5%”.
Work on “Nisin: authorized food preservative peptide, binds lipid II and forms membrane pores (ITSISLCTPGCKTGALMGCNMKTATCHCSIHVSK; cysteine pairing not given here; also: lantibiotic nisin-A; UniProt P13068 24-57, looked up)” yielded an MIC [4] greater than 1000 µg/mL, an MIC [5] greater than 1000 µg/mL and an MIC [6] greater than 1000 µg/mL.
